Results: patent US11034650B2, “Compounds useful for treating a Mannheimia haemolytica or Histophilus somni infection” (Intervet Inc., priority 2016, dated 2021)
Converted amounts (≈) assume the structure as drawn. Values belong to the molecule of their own block, whether it stands above or below them.

Legend:
Format in all cases: cell-based
[1] = test system: Mannheimia haemolytica MH 6357 (M7/2, reference strain, cattle infection strain); assay: MIC, broth-microdilution (CLSI VET01-A4), strain MH 6357; conditions: Mannheimia haemolytica strain MH 6357, broth-microdilution; unit assumed
How it was run: (§1)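 Read-out is unaided visual inspection for turbidity. The minimum inhibitory concentration is the lowest tested level without detectable growth across a two-fold compound series.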

[2] = test system: Mannheimia haemolytica MH 6374 (ATCC 33396, reference strain); assay: MIC, broth-microdilution (CLSI VET01-A4), strain MH 6374; conditions: Mannheimia haemolytica strain MH 6374, broth-microdilution; unit assumed
How it was run: as §1

[3] = test system: Mannheimia haemolytica MH 10720 (154, BRD field isolate); assay: MIC, broth-microdilution (CLSI VET01-A4), strain MH 10720; conditions: Mannheimia haemolytica strain MH 10720, broth-microdilution; unit assumed
How it was run: as §1

[4] = test system: Mannheimia haemolytica MH 12587 (1071, BRD field isolate, macrolide-resistance: erm+, E+); assay: MIC, broth-microdilution (CLSI VET01-A4), strain MH 12587; conditions: Mannheimia haemolytica strain MH 12587, broth-microdilution; unit assumed
How it was run: as §1

[5] = test system: Mannheimia haemolytica MH 13065 (XB0446-6003.9, BRD field isolate); assay: MIC, broth-microdilution (CLSI VET01-A4), strain MH 13065; conditions: Mannheimia haemolytica strain MH 13065, broth-microdilution; unit assumed
How it was run: as §1

[6] = test system: Mannheimia haemolytica MH 13093 (XB0472-6014.1, BRD field isolate); assay: MIC, broth-microdilution (CLSI VET01-A4), strain MH 13093; conditions: Mannheimia haemolytica strain MH 13093, broth-microdilution; unit assumed
How it was run: as §1

[7] = test system: Pasteurella multocida PM 6267 (P 2225 (L386), reference strain, mouse infection strain); assay: MIC, broth-microdilution (CLSI VET01-A4), strain PM 6267; conditions: Pasteurella multocida strain PM 6267, broth-microdilution; unit assumed
How it was run: as §1

[8] = test system: Pasteurella multocida PM 6391 (ATCC 43137, reference strain); assay: MIC, broth-microdilution (CLSI VET01-A4), strain PM 6391; conditions: Pasteurella multocida strain PM 6391, broth-microdilution; unit assumed
How it was run: as §1

[9] = test system: Pasteurella multocida PM 10775 (080130003051, BRD field isolate); assay: MIC, broth-microdilution (CLSI VET01-A4), strain PM 10775; conditions: Pasteurella multocida strain PM 10775, broth-microdilution; unit assumed
How it was run: as §1

[10] = test system: Pasteurella multocida PM 12080 (IV102277-0093, BRD field isolate); assay: MIC, broth-microdilution (CLSI VET01-A4), strain PM 12080; conditions: Pasteurella multocida strain PM 12080, broth-microdilution; unit assumed
How it was run: as §1

Compound: CSC(C)(C)[C@H](NC(=O)c1ccc(C#Cc2ccc(CNCc3ccco3)s2)cc1)C(=O)NO [Compound 308]
MIC MH 6357 [1]: 0.8 µg/mL (≈ 1.61 µM) | MIC MH 6374 [2]: 0.8 µg/mL (≈ 1.61 µM) | MIC MH 10720 [3]: ≤ 0.1 µg/mL | MIC MH 12587 [4]: 1.6 µg/mL (≈ 3.22 µM) | MIC MH 13065 [5]: 0.8 µg/mL (≈ 1.61 µM) | MIC MH 13093 [6]: 1.6 µg/mL (≈ 3.22 µM) | MIC PM 6267 [7]: 0.8 µg/mL (≈ 1.61 µM) | MIC PM 6391 [8]: 0.4 µg/mL (≈ 0.804 µM) | MIC PM 10775 [9]: ≤ 0.1 µg/mL | MIC PM 12080 [10]: 0.4 µg/mL (≈ 0.804 µM)

Compound: CC(C)[C@H](NC(=O)c1ccc(C#Cc2ccc(CNCc3nccs3)cc2)cc1)C(=O)NO [Compound 199]
MIC MH 6357 [1]: 0.2 µg/mL (≈ 0.432 µM) | MIC MH 6374 [2]: 0.4 µg/mL (≈ 0.865 µM) | MIC MH 10720 [3]: ≤ 0.1 µg/mL | MIC MH 12587 [4]: 0.4 µg/mL (≈ 0.865 µM) | MIC MH 13065 [5]: 0.2 µg/mL (≈ 0.432 µM) | MIC MH 13093 [6]: 0.4 µg/mL (≈ 0.865 µM) | MIC PM 6267 [7]: ≤ 0.1 µg/mL | MIC PM 6391 [8]: ≤ 0.1 µg/mL | MIC PM 10775 [9]: ≤ 0.1 µg/mL | MIC PM 12080 [10]: ≤ 0.1 µg/mL

Compound: COCCNCc1ccc(C#Cc2ccc(C(=O)N[C@H](C(=O)NO)C(C)(C)S(C)(=O)=O)cc2)s1 [C.313]
MIC MH 6357 [1]: 0.4 µg/mL (≈ 0.788 µM) | MIC MH 6374 [2]: 1.6 µg/mL (≈ 3.15 µM) | MIC MH 10720 [3]: ≤ 0.1 µg/mL | MIC MH 12587 [4]: 1.6 µg/mL (≈ 3.15 µM) | MIC MH 13065 [5]: 0.4 µg/mL (≈ 0.788 µM) | MIC MH 13093 [6]: 0.8 µg/mL (≈ 1.58 µM) | MIC PM 6267 [7]: 0.2 µg/mL (≈ 0.394 µM) | MIC PM 6391 [8]: ≤ 0.1 µg/mL | MIC PM 10775 [9]: ≤ 0.1 µg/mL | MIC PM 12080 [10]: ≤ 0.1 µg/mL

Compound: O=C(N[C@@H](CO)C(=O)NO)c1ccc(C#Cc2ccc(CN3CCCC3)cc2)cc1 [Compound 145]
MIC MH 6357 [1]: 6.3 µg/mL (≈ 15.5 µM) | MIC MH 6374 [2]: 25 µg/mL (≈ 61.4 µM) | MIC MH 10720 [3]: 3.1 µg/mL (≈ 7.61 µM) | MIC MH 12587 [4]: 25 µg/mL (≈ 61.4 µM) | MIC MH 13065 [5]: 12.5 µg/mL (≈ 30.7 µM) | MIC MH 13093 [6]: 12.5 µg/mL (≈ 30.7 µM) | MIC PM 6267 [7]: 3.1 µg/mL (≈ 7.61 µM) | MIC PM 6391 [8]: 6.3 µg/mL (≈ 15.5 µM) | MIC PM 10775 [9]: 0.2 µg/mL (≈ 0.491 µM) | MIC PM 12080 [10]: 6.3 µg/mL (≈ 15.5 µM)

Compound: CC(C)(C(NC(=O)c1ccc(C#Cc2ccc(CNCc3cccs3)cc2)cc1)C(=O)NO)[N+](=O)[O-] (stereo not drawn) [Compound 289]
MIC MH 6357 [1]: 0.4 µg/mL (≈ 0.79 µM) | MIC MH 6374 [2]: 0.8 µg/mL (≈ 1.58 µM) | MIC MH 10720 [3]: ≤ 0.1 µg/mL | MIC MH 12587 [4]: 1.6 µg/mL (≈ 3.16 µM) | MIC MH 13065 [5]: 0.8 µg/mL (≈ 1.58 µM) | MIC MH 13093 [6]: 0.8 µg/mL (≈ 1.58 µM) | MIC PM 6267 [7]: 0.8 µg/mL (≈ 1.58 µM) | MIC PM 6391 [8]: 0.4 µg/mL (≈ 0.79 µM) | MIC PM 10775 [9]: 0.4 µg/mL (≈ 0.79 µM) | MIC PM 12080 [10]: ≤ 0.1 µg/mL

The next lines start with results.

MIC PM 6267 [7]: 6.3 µg/mL (≈ 13.4 µM) | MIC PM 6391 [8]: ≤ 0.1 µg/mL | MIC PM 10775 [9]: 0.4 µg/mL (≈ 0.852 µM) | MIC PM 12080 [10]: 0.2 µg/mL (≈ 0.426 µM)
Compound: CC(=O)[C@H](NC(=O)c1ccc(C#Cc2ccc(CNCc3ccc(C)cc3)cc2)cc1)C(=O)NO [Compound 412]
MIC MH 6357 [1]: 1.6 µg/mL (≈ 3.41 µM) | MIC MH 6374 [2]: 1.6 µg/mL (≈ 3.41 µM) | MIC MH 10720 [3]: 1.6 µg/mL (≈ 3.41 µM) | MIC MH 12587 [4]: 0.4 µg/mL (≈ 0.852 µM) | MIC MH 13065 [5]: 1.6 µg/mL (≈ 3.41 µM) | MIC MH 13093 [6]: 1.6 µg/mL (≈ 3.41 µM)

MIC PM 6267 [7]: 25 µg/mL (≈ 54.8 µM) | MIC PM 6391 [8]: 0.2 µg/mL (≈ 0.438 µM) | MIC PM 10775 [9]: 1.6 µg/mL (≈ 3.5 µM) | MIC PM 12080 [10]: 0.8 µg/mL (≈ 1.75 µM)
Compound: CC(=O)C(NC(=O)c1ccc(C#Cc2ccc(CNCc3cccnc3)cc2)cc1)C(=O)NO (stereo not drawn) [Compound 407]
MIC MH 6357 [1]: 3.1 µg/mL (≈ 6.79 µM) | MIC MH 6374 [2]: 6.3 µg/mL (≈ 13.8 µM) | MIC MH 10720 [3]: 6.3 µg/mL (≈ 13.8 µM) | MIC MH 12587 [4]: 1.6 µg/mL (≈ 3.5 µM) | MIC MH 13065 [5]: 6.3 µg/mL (≈ 13.8 µM) | MIC MH 13093 [6]: 6.3 µg/mL (≈ 13.8 µM)

MIC PM 6267 [7]: 3.1 µg/mL (≈ 6.59 µM) | MIC PM 6391 [8]: 1.6 µg/mL (≈ 3.4 µM) | MIC PM 10775 [9]: 0.2 µg/mL (≈ 0.425 µM) | MIC PM 12080 [10]: 0.8 µg/mL (≈ 1.7 µM)
Compound: COCCNCc1ccc(C#Cc2ccc(C(=O)N[C@H](C(=O)NO)C(C)(C)SC)cc2)cn1 [Compound 337]
MIC MH 6357 [1]: 3.1 µg/mL (≈ 6.59 µM) | MIC MH 6374 [2]: 3.1 µg/mL (≈ 6.59 µM) | MIC MH 10720 [3]: 0.8 µg/mL (≈ 1.7 µM) | MIC MH 12587 [4]: 6.3 µg/mL (≈ 13.4 µM) | MIC MH 13065 [5]: 6.3 µg/mL (≈ 13.4 µM) | MIC MH 13093 [6]: 3.1 µg/mL (≈ 6.59 µM)

MIC PM 6267 [7]: 1.6 µg/mL (≈ 3.18 µM) | MIC PM 6391 [8]: 0.8 µg/mL (≈ 1.59 µM) | MIC PM 10775 [9]: ≤ 0.1 µg/mL | MIC PM 12080 [10]: 0.4 µg/mL (≈ 0.796 µM)
Compound: COCCNCc1ccc(C#Cc2ccc(C(=O)N[C@H](C(=O)NO)C(C)(C)S(C)(=O)=O)cc2)cn1 [Compound 349]
MIC MH 6357 [1]: 1.6 µg/mL (≈ 3.18 µM) | MIC MH 6374 [2]: 3.1 µg/mL (≈ 6.17 µM) | MIC MH 10720 [3]: 0.8 µg/mL (≈ 1.59 µM) | MIC MH 12587 [4]: 6.3 µg/mL (≈ 12.5 µM) | MIC MH 13065 [5]: 6.3 µg/mL (≈ 12.5 µM) | MIC MH 13093 [6]: 3.1 µg/mL (≈ 6.17 µM)
